Source: US20030087316A1, “Diagnostic markers of liver dysfunction” (priority 2001, published 2003)
“Also recorded” adds a separate entry of the source. Non-standard residues stand in square brackets, D forms with d. No end group written: not given here. *: point of attachment. pNA = O=[N+]([O-])c1ccc(N*)cc1

What was measured:
C1s [1] = target: T1, C1s (Homo sapiens, UniProt P09871); test: Peptidase (amidolytic) activity of purified C1s, chromogenic substrate, 96-well plate, OD 405 nm; type: biochemical; conditions: Table 2; C1s 100 nM, substrate S2288; 60 min at 4° C. with LBTI 1 mg/ml, SBTI I mg/ml, aprotinin 0.075 mg/ml, benzamidine 50 mM or Futhan 0.1 mg/ml; % of total activity without inhibitor
T1 construct: purchased Advanced Research Technologies (San Diego, Calif.)
T1 sequence (P09871 438-688 limits assumed): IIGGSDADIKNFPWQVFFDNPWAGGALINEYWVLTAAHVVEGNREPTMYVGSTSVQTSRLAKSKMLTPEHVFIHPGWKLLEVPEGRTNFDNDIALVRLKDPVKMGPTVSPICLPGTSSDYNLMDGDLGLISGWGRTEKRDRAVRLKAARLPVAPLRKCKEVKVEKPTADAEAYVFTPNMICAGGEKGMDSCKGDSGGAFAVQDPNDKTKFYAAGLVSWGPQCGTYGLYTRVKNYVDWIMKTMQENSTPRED
T1 sequence (P09871 16-437 partner limits assumed): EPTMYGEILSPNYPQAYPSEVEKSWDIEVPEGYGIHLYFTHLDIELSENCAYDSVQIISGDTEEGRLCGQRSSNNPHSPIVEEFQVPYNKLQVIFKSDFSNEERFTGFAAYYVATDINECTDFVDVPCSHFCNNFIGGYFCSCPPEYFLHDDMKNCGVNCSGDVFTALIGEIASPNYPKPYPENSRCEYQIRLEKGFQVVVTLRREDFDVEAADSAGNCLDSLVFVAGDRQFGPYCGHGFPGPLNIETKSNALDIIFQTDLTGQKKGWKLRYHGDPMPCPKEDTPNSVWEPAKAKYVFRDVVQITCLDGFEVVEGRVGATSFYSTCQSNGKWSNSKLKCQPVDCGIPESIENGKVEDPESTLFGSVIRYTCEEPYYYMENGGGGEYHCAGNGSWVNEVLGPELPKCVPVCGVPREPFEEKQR
Description: (§1) The peptidase activity in plasma samples or of the purified enzymes were routinely determined at 37° C. in a 96-well plate. Each well contained 0.5 mM substrate in 100 μl of Tris-buffered saline (TBS)-EDTA buffer (50 mM Tris/150 mM NaCl/10 mM EDTA, pH 7.8) and the reaction was monitored using a microplate reader (Titertek Multiscan, Labsystems, Needham Heights, Mass.).
(§2) The enzymes C1s (100 nM), plasm in (100 nM), thrombin (100 nM), plasma kallikrein (20 nM), β-FXIIa (100 nM), trypsin (16 nM) or LTR EDTA plasma samples were incubated for 60 min at 4° C. with TBS-EDTA buffer containing either LBTI (1 mg/ml), SBTI (I mg/ml), aprotinin (0.075 mg/ml), benzamidine (50 mM), or Futhan (0.1 mg/ml), before mixing with the substrate. EDTA plasma samples from LTR were diluted 10 or 20-fold with TBS-EDTA. The chromogenic substrate AGLTR-pNA was used for all enzymes and LTR samples except C1s where the substrate S2288 was used. Based on the initial rate of increase in OD at 405 nm, the residual free enzyme level was calculated and expressed as a percentage of total activity without inhibitor added.
(§3) Ten-fold diluted normal EDTA plasma was added to each enzyme. The enzymes C1s (100 nM), plasmin (100 nM), thrombin (100 nM), plasma kallikrein (20 nM), β-FXIIa (100 nM), trypsin (16 nM) or LTR EDTA plasma samples were incubated for 60 min at 4° C. with TBS-EDTA buffer containing either C1INH (40 μg/ml), bdellin (50 μg/ml), hirudin (50 U/ml), PPACK 11(10 μM), or CTI (100 μg/ml), before adding the substrate. LTR samples were 10 or 20-fold diluted with TBS-EDTA. The chromogenic substrate AGLTR-pNA was used for all enzymes and LTP samples except C1s where the substrate S2288 was used. Based on the initial rate of increase in OD at 405 nm, the residual free enzyme was calculated and expressed as a percentage of total activity determined without inhibitor added.

plasmin [2] = target: T2, plasmin (Homo sapiens, UniProt P00747); test: Peptidase (amidolytic) activity of purified plasmin, chromogenic substrate, OD 405 nm; type: biochemical; conditions: Table 2; plasmin 100 nM, substrate AGLTR-pNA; 60 min at 4° C. with LBTI 1 mg/ml, SBTI I mg/ml, aprotinin 0.075 mg/ml, benzamidine 50 mM or Futhan 0.1 mg/ml
T2 construct: purchased Calbiochem-Novabiochem Corp (La Jolla, Calif.)
Description: as §1, §2, §3

thrombin = target: T3, thrombin (Homo sapiens, UniProt P00734); test: Peptidase (amidolytic) activity of purified thrombin, chromogenic substrate, OD 405 nm; type: biochemical; conditions: for Cleavage of the substrate by thrombin, in words: enzyme 10 nM, 37° C., 15 min (FIG. 7)
T3 construct: purchased Calbiochem-Novabiochem Corp (La Jolla, Calif.)

plasma kallikrein = target: T4, plasma kallikrein (Homo sapiens, UniProt P03952); test: Peptidase (amidolytic) activity of purified plasma kallikrein, chromogenic substrate, OD 405 nm; type: biochemical; conditions: for Cleavage of the substrate by plasma kallikrein, in words: enzyme 10 nM, 37° C., 15 min (FIG. 7)
T4 construct: The light chain of kallikrein contains the enzymatic domain; purchased Calbiochem-Novabiochem Corp (La Jolla, Calif.)
Description: as §1
(§4) […] EDTA plasma samples from LTR were diluted 10 or 20-fold with TBS-EDTA. The chromogenic substrate AGLTR-pNA was used for all enzymes and LTR samples except C1s where the substrate S2288 was used. Based on the initial rate of increase in OD at 405 nm, the residual free enzyme level was calculated and expressed as a percentage of total activity without inhibitor added.
(§5) Ten-fold diluted normal EDTA plasma was added to each enzyme. […] LTR samples were 10 or 20-fold diluted with TBS-EDTA. The chromogenic substrate AGLTR-pNA was used for all enzymes and LTP samples except C1s where the substrate S2288 was used. Based on the initial rate of increase in OD at 405 nm, the residual free enzyme was calculated and expressed as a percentage of total activity determined without inhibitor added.

β-Factor XIIa (β-FXIIa) = target: T5, β-Factor XIIa (β-FXIIa) (Homo sapiens, UniProt P00748); test: Peptidase (amidolytic) activity of purified β-FXIIa, chromogenic substrate, OD 405 nm; type: biochemical; conditions: for Cleavage of the substrate by β-FXIIa, in words: enzyme 10 nM, 37° C., 15 min (FIG. 7)
T5 construct: β-Factor XIIa (β-FXIIa) was kindly provided by Dr. Mary J. Heeb; gift of Dr. Mary J. Heeb, The Scripps Research Institute
Description: as §1, §4, §5

trypsin [3] = test: Peptidase (amidolytic) activity of purified trypsin, chromogenic substrate, OD 405 nm; type: biochemical; conditions: Table 2; trypsin 16 nM, substrate AGLTR-pNA; 60 min at 4° C. with LBTI 1 mg/ml, SBTI I mg/ml, aprotinin 0.075 mg/ml, benzamidine 50 mM or Futhan 0.1 mg/ml
Description: as §1, §2

[4] = test system: proteinase(s) in EDTA plasma from LTR (kallikrein-like peptidase); test: Peptidase activity in EDTA plasma from liver transplant recipients (LTR), chromogenic substrate, OD 405 nm; type: biochemical, human; conditions: Table 2, substrate AGLTR-pNA, 60 min at 4° C. with LBTI 1 mg/ml, SBTI I mg/ml, aprotinin 0.075 mg/ml, benzamidine 50 mM or Futhan 0.1 mg/ml
Description: Blood samples were drawn into 5 ml EDTA tubes (Venoject; Terumo Corp., Elkton, Md.). The plasma was collected immediately by centrifugation at 2,000×g for 15 min at 4° C. The plasma samples were either processed immediately for analysis or stored at −70° C. Frozen samples were thawed at 4° C. prior to analysis.
as §1, §2, §3

[5] = test system: all of the enzymes examined; test: General serine proteinase inhibitors on selected proteinases (summary over the enzymes); type: biochemical; conditions: Table 2; benzamidine 50 mM, Futhan 0.1 mg/ml
Description: as §1, §2

tissue kallikrein = test: Peptidase activity of purified tissue kallikrein on chromogenic substrates; type: biochemical; conditions: enzyme 10 nM, 37° C., 15 min (FIG. 7)
Description: as §1

C1s [6] = target: T1, C1s; test: Peptidase (amidolytic) activity of purified C1s, chromogenic substrate, 96-well plate, OD 405 nm; type: biochemical; conditions: enzyme 10 nM, 37° C., 15 min (FIG. 7)
plasmin [7] = target: T2, plasmin; test: Peptidase (amidolytic) activity of purified plasmin, chromogenic substrate, OD 405 nm; type: biochemical; conditions: enzyme 10 nM, 37° C., 15 min (FIG. 7)
trypsin [8] = test: Peptidase (amidolytic) activity of purified trypsin, chromogenic substrate, OD 405 nm; type: biochemical; conditions: enzyme 10 nM, 37° C., 15 min (FIG. 7)
[9] = test system: proteinase(s) in EDTA plasma from LTR (kallikrein-like peptidase); test: Peptidase activity in EDTA plasma from liver transplant recipients (LTR), chromogenic substrate, OD 405 nm; type: biochemical, human; conditions: Sephacryl S-300 fractions of LTR plasma, 37° C. (FIG. 4)

T2 sequence (P00747 581-810 limits assumed, species assumed): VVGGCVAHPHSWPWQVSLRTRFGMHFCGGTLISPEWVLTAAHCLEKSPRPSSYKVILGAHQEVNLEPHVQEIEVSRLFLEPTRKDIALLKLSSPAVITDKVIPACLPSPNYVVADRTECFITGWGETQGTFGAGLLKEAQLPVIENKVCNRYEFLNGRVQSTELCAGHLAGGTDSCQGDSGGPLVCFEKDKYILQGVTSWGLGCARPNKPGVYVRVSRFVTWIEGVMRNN
T2 sequence (P00747 97-580 partner limits assumed, species assumed): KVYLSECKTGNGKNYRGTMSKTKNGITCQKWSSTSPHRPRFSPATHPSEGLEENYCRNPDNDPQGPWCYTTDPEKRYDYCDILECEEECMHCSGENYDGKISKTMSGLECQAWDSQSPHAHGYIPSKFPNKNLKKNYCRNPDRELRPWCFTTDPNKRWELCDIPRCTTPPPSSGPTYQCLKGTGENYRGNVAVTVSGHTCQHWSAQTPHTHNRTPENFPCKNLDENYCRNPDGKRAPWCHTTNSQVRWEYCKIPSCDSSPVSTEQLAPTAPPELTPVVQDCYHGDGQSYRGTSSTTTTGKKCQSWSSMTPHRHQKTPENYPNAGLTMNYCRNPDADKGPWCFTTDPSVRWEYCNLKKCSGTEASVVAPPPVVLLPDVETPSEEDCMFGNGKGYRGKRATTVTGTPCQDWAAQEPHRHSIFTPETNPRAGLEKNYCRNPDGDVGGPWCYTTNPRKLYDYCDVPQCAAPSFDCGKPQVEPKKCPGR
T4 sequence (P03952 391-638 limits assumed): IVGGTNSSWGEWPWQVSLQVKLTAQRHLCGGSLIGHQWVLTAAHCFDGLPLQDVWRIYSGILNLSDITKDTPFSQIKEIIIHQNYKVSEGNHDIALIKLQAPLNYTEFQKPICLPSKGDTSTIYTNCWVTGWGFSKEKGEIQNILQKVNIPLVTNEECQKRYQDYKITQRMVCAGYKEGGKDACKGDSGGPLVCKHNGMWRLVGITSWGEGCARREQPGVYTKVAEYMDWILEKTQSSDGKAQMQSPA
T4 sequence (P03952 20-390 partner limits assumed): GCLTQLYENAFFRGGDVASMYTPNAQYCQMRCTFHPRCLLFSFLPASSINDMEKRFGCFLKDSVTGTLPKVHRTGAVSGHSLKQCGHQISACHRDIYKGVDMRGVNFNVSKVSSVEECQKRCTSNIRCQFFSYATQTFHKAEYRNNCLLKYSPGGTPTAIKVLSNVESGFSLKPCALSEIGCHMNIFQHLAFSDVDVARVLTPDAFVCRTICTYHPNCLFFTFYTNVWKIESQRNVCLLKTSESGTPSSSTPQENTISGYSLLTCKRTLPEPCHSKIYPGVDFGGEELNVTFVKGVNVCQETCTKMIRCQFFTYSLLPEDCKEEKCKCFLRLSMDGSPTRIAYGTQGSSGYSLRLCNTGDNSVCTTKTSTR
T5 sequence (P00748 373-615 limits assumed, other chains not shown): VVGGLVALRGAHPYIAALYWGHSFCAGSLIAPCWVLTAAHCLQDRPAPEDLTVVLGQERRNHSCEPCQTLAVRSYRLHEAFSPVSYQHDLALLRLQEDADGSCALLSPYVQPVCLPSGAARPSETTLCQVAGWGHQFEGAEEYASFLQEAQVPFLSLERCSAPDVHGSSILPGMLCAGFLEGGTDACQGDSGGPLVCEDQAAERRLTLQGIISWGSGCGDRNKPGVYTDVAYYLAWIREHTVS

% Residual activity, C1s (C1s [1]) [%]	% Residual activity, Plasmin (plasmin [2]) [%]	% Residual activity, Thrombin (thrombin; Table 2, thrombin 100 nM, substrate AGLTR-pNA, 60 min at 4° C. with LBTI 1 mg/ml, SBTI I mg/ml, aprotinin 0.075 mg/ml, benzamidine 50 mM or Futhan 0.1 mg/ml) [%]	% Residual activity, Plasma Kallikrein (plasma kallikrein; Table 2, plasma kallikrein 20 nM, substrate AGLTR-pNA, 60 min at 4° C. with LBTI 1 mg/ml, SBTI I mg/ml, aprotinin 0.075 mg/ml, benzamidine 50 mM or Futhan 0.1 mg/ml) [%]	% Residual activity, β-FXIIa (β-Factor XIIa (β-FXIIa); Table 2, β-FXIIa 100 nM, substrate AGLTR-pNA, 60 min at 4° C. with LBTI 1 mg/ml, SBTI I mg/ml, aprotinin 0.075 mg/ml, benzamidine 50 mM or Futhan 0.1 mg/ml) [%]	% Residual activity, Trypsin (trypsin [3]) [%]	% Residual activity, LTR 1 ([4]; LTR 1 EDTA plasma diluted 10 or 20-fold) [%]	% Residual activity, LTR 2 ([4]; LTR 2 EDTA plasma diluted 10 or 20-fold) [%]	% Residual activity, LTR 3 ([4]; LTR 3 EDTA plasma diluted 10 or 20-fold) [%]	Cleavage of the substrate by plasma kallikrein, in words (plasma kallikrein)	Cleavage of the substrate by β-FXIIa, in words (β-Factor XIIa (β-FXIIa))	Cleavage of the substrate by tissue kallikrein, in words (tissue kallikrein)	Cleavage of the substrate by C1s, in words (C1s [6])	Cleavage of the substrate by plasmin, in words (plasmin [7])	Compound	Inhibition of all of the enzymes examined, in words [5]	Cleavage of the substrate by thrombin, in words (thrombin)	Cleavage of the substrate by trypsin, in words (trypsin [8])	Rate of conversion of the substrate by gel filtered LTR plasma, relative to AGLTR-pNA, in words [9]
6.6	3.9	1.6	2.0	10.9	5.8	0.5	−0.3	1.5	–	–	–	–	–	N=C(N)c1ccccc1 [Benzamidine, benzamidine]	very efficient inhibitors for all of the enzymes examined	–	–	–
–	–	–	–	–	–	–	–	–	cleaved S2302 more rapidly than S2288	least active on these substrates	least active on these substrates	least active on these substrates	least active on these substrates	[dI]-Pro-Arg-pNA [S2288]	–	cleaved substrate S2288 more efficiently than S2302; also recorded: preferred S2288 over either AGLTR-pNA or S2302	cleaved substrate S2288 more efficiently than S2302	somewhat greater than that using AGLTR-pNA
–	–	–	–	–	–	–	–	–	cleaved S2302 more rapidly than S2288	least active on these substrates	least active on these substrates	least active on these substrates	least active on these substrates	[dP]-Phe-Arg-pNA [S2302]	–	cleaved substrate S2288 more efficiently than S2302	cleaved substrate S2288 more efficiently than S2302	somewhat greater than that using AGLTR-pNA

Compound	% Residual activity, C1s (C1s [1]) [%]	% Residual activity, Plasmin (plasmin [2]) [%]	% Residual activity, Thrombin (thrombin; Table 2, thrombin 100 nM, substrate AGLTR-pNA, 60 min at 4° C. with LBTI 1 mg/ml, SBTI I mg/ml, aprotinin 0.075 mg/ml, benzamidine 50 mM or Futhan 0.1 mg/ml) [%]	% Residual activity, Plasma Kallikrein (plasma kallikrein; Table 2, plasma kallikrein 20 nM, substrate AGLTR-pNA, 60 min at 4° C. with LBTI 1 mg/ml, SBTI I mg/ml, aprotinin 0.075 mg/ml, benzamidine 50 mM or Futhan 0.1 mg/ml) [%]	% Residual activity, β-FXIIa (β-Factor XIIa (β-FXIIa); Table 2, β-FXIIa 100 nM, substrate AGLTR-pNA, 60 min at 4° C. with LBTI 1 mg/ml, SBTI I mg/ml, aprotinin 0.075 mg/ml, benzamidine 50 mM or Futhan 0.1 mg/ml) [%]	% Residual activity, Trypsin (trypsin [3]) [%]	% Residual activity, LTR 1 ([4]; LTR 1 EDTA plasma diluted 10 or 20-fold) [%]	% Residual activity, LTR 2 ([4]; LTR 2 EDTA plasma diluted 10 or 20-fold) [%]	% Residual activity, LTR 3 ([4]; LTR 3 EDTA plasma diluted 10 or 20-fold) [%]	Cleavage of the substrate by plasma kallikrein, in words (plasma kallikrein)	Cleavage of the substrate by β-FXIIa, in words (β-Factor XIIa (β-FXIIa))	Cleavage of the substrate by tissue kallikrein, in words (tissue kallikrein)	Cleavage of the substrate by C1s, in words (C1s [6])	Cleavage of the substrate by plasmin, in words (plasmin [7])	Inhibition of all of the enzymes examined, in words [5]	Cleavage of the substrate by thrombin, in words (thrombin)	Cleavage of the substrate by trypsin, in words (trypsin [8])	Rate of conversion of the substrate by gel filtered LTR plasma, relative to AGLTR-pNA, in words [9]
Ac-Ala-Gly-Leu-Thr-Arg-p-nitroanilide (Ac-AGLTR-pNA; SMILES CC(=O)N[C@@H](C)C(=O)NCC(=O)N[C@@H](CC(C)C)C(=O)N[C@H](C(=O)N[C@@H](CCCNC(=N)N)C(=O)Nc1ccc([N+](=O)[O-])cc1)[C@@H](C)O)	–	–	–	–	–	–	–	–	–	cleaved AGLTR-pNA relatively efficiently	almost no ability to cleave this substrate	almost no ability to cleave this substrate	almost no ability to cleave this substrate; also recorded: neither C1s nor any of the other proteinases efficiently cleaved this substrate	poorly cleaved	–	poorly cleaved	cleaved AGLTR-pNA relatively efficiently	–
